{"source": "patent US9789114B2", "about": "“Compounds as HIF-1α inhibitors and manufacturing process thereof” (DONGGUK UNIVERSITY INDUSTRY-ACADEMIC COOPERATION FOUNDATION, priority 2011, dated 2017)", "key": {"[1]": {"tested_on": "Chick embryo chorioallantoic membrane", "test": "CAM (chick embryo chorioallantoic membrane) assay", "assay_type": "in vivo", "details": "10-20 μg on coverslip, 2 days, FIG. 2", "protocol": "CAM (Chick embryo chorioallantoic membrane) assay was conducted as an in vivo model to determine whether the compounds according to the present invention, I-3, I-6, I-19, and I-22, had anti-angiogenic effects or not. DMSO-treated groups were used as negative controls.\nAccording to the present invention, CAM assay was performed as follows.\nFertilized eggs were incubated periodically rolling at 37° C. with 50% humidity for 2-3 days. When eggs were erected, approximately 3 ml of albumin was extracted from the sharp edge of the eggs using a syringe. The hole of the eggs was sealed with a tape to prevent from dryness and contamination, and the hole of the eggs was put down and incubated for 2 to 3 days. After punching a hole with 1.5 cm diameter in the round part of eggs, opaque membrane was removed carefully. The compounds (10-20 μg) according to the present invention were placed and spread on thermanox coverslip equally to dry, and then the hole in the round part of eggs put on the upper part of the fertilized eggs that vessels grew. The eggs were examined under the dissecting microscope and the results were given in FIG. 2, after covering the hole with a coverglass to protect it from contamination for 2 days."}, "[2]": {"tested_on": "HIF-1α-mediated HRE transcriptional activity", "test": "Assay for inhibition of HIF-1α-mediated transcriptional activity (HRE reporter assay)", "assay_type": "cell-based, human", "details": "Homo sapiens, HCT-116, HCT116 cells, 12 hours under hypoxia (1% O2), read-out: Inhibitory activity against HIF-1α (10 μM)", "summary_of_the_method": "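HCT116 human colon cancer cells co-transfected with pGL3 luciferase reporter carrying six HRE copies from human VEGF plus Renilla control, then treated with 0–20 μM compound for 12 h under hypoxia (1% O2). Inhibition taken from dual-luciferase reporter activity in lysates.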"}, "[3]": {"tested_on": "GAPDH", "test": "GAPDH expression level (internal control) in western blot, HCT116 cells", "assay_type": "cell-based, human", "details": "HCT116, hypoxia 1% O2, 0-30 μM, 12 hours, FIG. 1", "protocol": "(§1) First, HCT116 human colon cancer cells (ATCC #CCL-247) were plated at the concentration of 2×10^5 cells/ml. After 24 hours, the cells were incubated under hypoxia (1% O2, 94% N2, and 5% CO2, expressed as 1% O2 in FIG. 1) for 4 hours in order to induce HIF-la accumulation. Cells were treated with the compounds at various concentrations (0, 3, 10, 20, and 30 μM) for 12 hours under hypoxia. The cells were then harvested, and lysed in RIPA buffer to obtain nuclear extracts. Cells grown at 20% O2 (normoxia) were used as control groups to compare HIF-1α-mediated gene expression under each condition. 30 μg of the nuclear extracts per sample was separated by SDS-PAGE (sodium dodecyl sulfate-polyacrylamide gel electrophoresis), and was then transferred to PVDF (polyvinylidene fluoride membrane) membranes. After membranes were probed with HIF-1α antibodies (R&D System), HIF-1α proteins were detected with HRP-conjugated secondary antibodies (Amersham-Pharmacia). GAPDH (Glyceraldehyde 3-phosphate dehydrogenase) was used as an internal control for loading in western blot analysis."}, "[4]": {"tested_on": "HCT116 colon cancer cells", "test": "In vivo anti-cancer activity by oral administration, HCT116 tumor in nude mice", "set-up": "species or system BALB/c nu/nu mice", "details": "for inhibition in vivo at 20 mg/kg: Mus musculus", "protocol": "<Example 4> In Vivo Anti-Cancer Activity of Compounds by Oral Administration\n(§2) In vivo anti-cancer activity of the compounds according to the present invention, I-3, I-6, I-8, I-16, I-19, I-22, I-23, and I-24, was measured in mice to evaluate in vivo efficacy by oral administration. Specifically, the nude mice were divided into test groups and control groups, each consisting of 4 mice. In vivo efficacy was evaluated by measuring body weight, tumor volume, and tumor weight.\n(§3) Female nude mice 6 weeks old (BALB/c nu/nu, Charles River) were bred in germ-free breeding rooms maintained at constant temperature and humidity. After the nude mice were anesthetized, HCT116 colon cancer cells were implanted at a count of […] cells/mouse into the rectum in BALB/c nu/nu mice and then the incisions were closed with surgical clips. The size of tumor was measured by a caliper. When the size of transplanted tumor reached to 50˜60 mm^3, the above compounds according to the present invention were administered. In more detail, after the above compounds in test groups were dissolved at concentration of 20 mg/kg in a solvent containing 80% of physiological saline, 10% of DMAC (dimethylacetamide), and 10% Tween 80 (hereinafter referred to as ‘Solvent A’), […] of dissolved compounds were orally administered once a day. Mice in control groups were treated with […] of Solvent A alone once daily.\n(§4) Tumor volume and body weight were measured to identify in vivo anti-cancer activity of the compounds according to the present invention by repetitive oral administration. Tumor volume and tumor growth inhibition (TGI) in Table 2 were calculated according to the below Mathematic FIG. 1 and FIG. 2, respectively. Tumor growth inhibition was converted to a percentage in Table 2."}, "[5]": {"test": "Body weight change and side effects during 14 days of oral treatment in nude mice", "assay_type": "in vivo, BALB/c nu/nu mice", "protocol": "as §2, §3, §4\nMoreover, severe side effects and statistically significant changes of body weight in all mice treated compounds were not shown for 14 days, comparing to control groups treated with vehicle. (Table 3)"}, "[6]": {"biological_target": "T1, HIF-1α (Homo sapiens, UniProt Q16665)", "T1 construct": "endogenous in cells; host or cells: HCT116 human colon cancer cells (ATCC #CCL-247)", "T1 sequence (Q16665 whole entry)": "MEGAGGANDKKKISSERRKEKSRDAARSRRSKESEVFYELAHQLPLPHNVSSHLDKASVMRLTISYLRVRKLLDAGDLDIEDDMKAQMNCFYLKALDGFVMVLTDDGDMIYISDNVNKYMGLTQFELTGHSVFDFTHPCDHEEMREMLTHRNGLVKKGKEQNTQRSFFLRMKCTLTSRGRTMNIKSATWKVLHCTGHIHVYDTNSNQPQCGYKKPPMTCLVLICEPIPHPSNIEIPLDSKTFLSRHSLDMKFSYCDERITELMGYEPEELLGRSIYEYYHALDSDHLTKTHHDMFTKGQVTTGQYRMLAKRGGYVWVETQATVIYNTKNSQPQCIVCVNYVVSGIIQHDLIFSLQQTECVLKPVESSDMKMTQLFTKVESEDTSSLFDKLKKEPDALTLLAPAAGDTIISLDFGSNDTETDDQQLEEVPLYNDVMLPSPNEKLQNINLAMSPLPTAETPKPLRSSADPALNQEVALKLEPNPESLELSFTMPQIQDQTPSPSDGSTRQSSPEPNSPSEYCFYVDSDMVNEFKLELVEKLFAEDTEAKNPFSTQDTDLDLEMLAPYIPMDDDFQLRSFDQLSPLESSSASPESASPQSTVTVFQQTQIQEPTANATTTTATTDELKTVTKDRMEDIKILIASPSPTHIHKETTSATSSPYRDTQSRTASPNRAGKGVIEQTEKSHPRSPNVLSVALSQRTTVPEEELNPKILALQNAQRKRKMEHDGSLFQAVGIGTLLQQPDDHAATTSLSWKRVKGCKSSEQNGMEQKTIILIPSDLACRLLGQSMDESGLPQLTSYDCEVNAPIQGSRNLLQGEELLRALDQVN", "test": "Inhibition of hypoxia-induced HIF-1α accumulation, western blot in HCT116 cells", "assay_type": "cell-based", "details": "HCT116, hypoxia 1% O2, 0-30 μM, 12 hours, FIG. 1", "protocol": "<Experiment 2> In Vitro Studies for Inhibition of Hypoxia-Induced HIF-1α Accumulation\nInhibition of HIF-1α accumulation by the compounds according to the present invention was determined in HCT116 human colon cancer cells. In particular, western blot analysis was used to identify the compounds, I-3, I-6, I-8, I-16, I-19, I-22˜I-24, and I-27˜I-36, which inhibited HIF-1α accumulation under hypoxia.\nas §1"}, "[7]": {"details": "day 3, 20 mg/kg oral once a day"}, "[8]": {"details": "day 5, 20 mg/kg oral once a day"}, "[9]": {"details": "day 7, 20 mg/kg oral once a day"}, "[10]": {"details": "day 10, 20 mg/kg oral once a day"}, "[11]": {"details": "day 12, 20 mg/kg oral once a day"}, "[12]": {"details": "day 14, 20 mg/kg oral once a day"}}, "note": "Like-named read-outs stand apart in the source and are kept apart here.", "data": [{"compound": "Cc1cc(C23CC4CC(CC(C4)C2)C3)ccc1OCC(=O)N1CCOCC1", "note": "[Compound I-6, 2-(4-(Adamantan-1-yl)-2-methylphenoxy)-1-morpholinoethanone]", "values": [{"measurement": "formation of vessels (anti-angiogenic effect)", "setting": "[1]", "value": "inhibited formation of vessels"}, {"measurement": "inhibition at 10 µM", "setting": "[2]", "value": "76 to 100", "unit": "%"}, {"measurement": "GAPDH expression levels", "setting": "[3]", "value": "did not affect GAPDH expression levels"}, {"measurement": "inhibition in vivo at 20 mg/kg", "setting": "[4]; HCT-116, 72 h, day 3, 20 mg/kg oral once a day, read-out: TGI (tumor growth inhibition), tumor volume", "value": 25, "unit": "%"}, {"measurement": "inhibition in vivo at 20 mg/kg", "setting": "[4]; HCT-116, 120 h, day 5, 20 mg/kg oral once a day, read-out: TGI (tumor growth inhibition), tumor volume", "value": 24.1, "unit": "%"}, {"measurement": "inhibition in vivo at 20 mg/kg", "setting": "[4]; HCT-116, 168 h, day 7, 20 mg/kg oral once a day, read-out: TGI (tumor growth inhibition), tumor volume", "value": 26.5, "unit": "%"}, {"measurement": "inhibition in vivo at 20 mg/kg", "setting": "[4]; HCT-116, 240 h, day 10, 20 mg/kg oral once a day, read-out: TGI (tumor growth inhibition), tumor volume", "value": 28.4, "unit": "%"}, {"measurement": "inhibition in vivo at 20 mg/kg", "setting": "[4]; HCT-116, 288 h, day 12, 20 mg/kg oral once a day, read-out: TGI (tumor growth inhibition), tumor volume", "value": 28.1, "unit": "%"}, {"measurement": "inhibition in vivo at 20 mg/kg", "setting": "[4]; HCT-116, 336 h, day 14, 20 mg/kg oral once a day, read-out: TGI (tumor growth inhibition), tumor volume", "value": 28.4, "unit": "%"}, {"measurement": "inhibition in vivo at 20 mg/kg", "setting": "[4]; HCT-116, 336 h, day 14, 20 mg/kg oral once a day, read-out: TGI (tumor growth inhibition), tumor weight", "value": 28.1, "unit": "%"}, {"measurement": "Tumor volume", "setting": "[4]; [7]", "value": "25.5 ± 7.5", "unit": "mm^3"}, {"measurement": "Tumor volume", "setting": "[4]; [8]", "value": "70.1 ± 9.7", "unit": "mm^3"}, {"measurement": "Tumor volume", "setting": "[4]; [9]", "value": "128.4 ± 14.0", "unit": "mm^3"}, {"measurement": "Tumor volume", "setting": "[4]; [10]", "value": "186.6 ± 15.2", "unit": "mm^3"}, {"measurement": "Tumor volume", "setting": "[4]; [11]", "value": "322.5 ± 19.6", "unit": "mm^3"}, {"measurement": "Tumor volume", "setting": "[4]; [12]", "value": "476.9 ± 28.1", "unit": "mm^3"}, {"measurement": "Tumor weight", "setting": "[4]; [12]", "value": "1703.3 ± 252.2", "unit": "mg"}, {"measurement": "Body weight change", "setting": "[5]; day 0, 20 mg/kg oral once a day", "value": "100.0 ± 0.0", "unit": "%"}, {"measurement": "Body weight change", "setting": "[5]; [7]", "value": "103.4 ± 0.6", "unit": "%"}, {"measurement": "Body weight change", "setting": "[5]; [8]", "value": "103.6 ± 2.6", "unit": "%"}, {"measurement": "Body weight change", "setting": "[5]; [9]", "value": "103.8 ± 3.3", "unit": "%"}, {"measurement": "Body weight change", "setting": "[5]; [10]", "value": "105.0 ± 3.1", "unit": "%"}, {"measurement": "Body weight change", "setting": "[5]; [11]", "value": "103.8 ± 2.9", "unit": "%"}, {"measurement": "Body weight change", "setting": "[5]; [12]", "value": "102.4 ± 3.0", "unit": "%"}, {"measurement": "HIF-1α degradation", "setting": "[6]", "value": "promoted HIF-1α degradation"}]}]}
